Experimental data as given in patent US12064479B2, “Lipid nanoparticles for delivery of nucleic acids and methods of use thereof” (Akagera Medicines, Inc., priority 2022, dated 2024).

What was measured:
Assay type in all cases: physicochemical
[1] = Apparent solubility of phosphatidylserine salts in ethanol (shake flask); conditions: for Solubility, mM phosphatidylserine: 100% ethanol, room temperature, 24 hours, N=3
Method: Apparent solubilities of phosphatidylserine salts in ethanol were determined by shake flask technique. Sodium and ammonium salts of phosphatidylserines in the powder form were obtained from Avanti Polar Lipids (Alabama, USA). Aliquots of phosphatidylserine salt powder were placed in 12×75 borosilicate glass tubes in triplicate. Three mL of 200 proof ethanol (catalog number E-7023, MilliporeSigma, USA) were added, the tubes were closed with polyethylene snap caps, agitated using vortex mixer for 10-15 s to obtain uniform suspensions, and placed in a horizontal position on a rocking platform at room temperature (20-22° C.) overnight. The ambient temperature at the end of incubation was 20.4-20.9° C. After 24 hours incubation, the suspensions were visually checked for the presence of a solid phase, allowed to settle under gravity, and the supernatant solutions were passed through a 0.2-μm PTFE syringe membrane filters. The first 0.5 ml of the filtrate was discarded, the next 1 ml was collected, and phosphatidylserine in the filtrates was quantified by phospholipid phosphate assay as follows: 20 μL aliquots of the filtrate were taken in triplicate into glass tubes, ethanol was evaporated in a stream of argon at 70° C., and the residue was digested in a mixture of 60 μL concentrated sulfuric acid and 20 μL 30% hydrogen peroxide for 10 min at 180-190° C. The digested samples were diluted with 1 mL of deionized water, 20 μL of 10% sodium sulfite was added to destroy any residual peroxide, and the samples were incubated on a boiling water bath for 15 min to hydrolyze any condensed phosphate species. The samples were chilled down to room temperature, mixed with 0.2 mL of 2% (w/w) ammonium molybdate solution and 20 μL of 10% (w/w) ascorbic acid solution, incubated on a boiling water bath for 10 min, and chilled down in a water bath at room temperature. The phosphate concentration was determined from the optical density of the formed blue phosphomolybdic acid at 825 nm using five-point standard curve from concurrently run standards prepared from the NIST-traceable commercial phosphate standard solution diluted to cover the range of 0-2 mM phosphate (coefficient of determination R^2>0.9999). Solubility of phosphatidylserine salts was expressed in molarity units of phosphatidylserine (Table 40). The data are average f SD (N=3).

[2] = Stability of ionizable cationic lipids under accelerated oxidation (H2O2/Fe(III)Cl, UHPLC-CAD), Example 29; conditions: for % of main lipid peak to To, 24 h.: individual lipids 0.5 mM; for % of main lipid peak to To, 24 h. / % of main lipid peak to To, 48 h. / % of main lipid peak to To, 72 h.: 1% H2O2/100 μM Fe(III)Cl, 37° C.; for % of main lipid peak to To, 48 h. / % of main lipid peak to To, 72 h.: individual lipids
Method: Ethanol (Sigma-Aldrich, cat #459836) stocks of 1 mM cationic lipids (KC3, KC3-OA, KC3-PA, KC3-C17 and KC3-C17(C8:1)) were prepared and stored at −20° C. Prior to the experiment, 75 μl of a lipid stock was mixed with 75 μl of ultra-pure water (Rx Biosciences, cat #P01-UPW02-1000) to make 0.5 mM of cationic lipids and 5 mM of linoleic acid respectively. A combined stock in water of 10% H2O2 (Sigma-Aldrich, cat #H1009) and 1 mM of Fe(III)Cl (Sigma-Aldrich, cat #372870) was freshly by prepared prior to the experiment. To make 1% final concentration of H2O2 and 100 μM Fe(III)Cl, 15 μl of 10% H2O2/1 mM Fe(III)Cl stock was added to 135 μl of individual lipids The liposomes and individual lipids were incubated with H2O2/Fe(III)Cl at 37° C. and then 5 μl from each sample was taken at different time points (0, 24, 48, 72 and 96 hours) and dissolved in 90 μl of MeOH for HPLC analysis. Degradation of the main lipid peak was analyzed using Thermo Scientific Vanquish Flex UHPLC occupied with Charged Aerosol Detector (CAD) and Phenomenex™ Kinetex C8 column (L=150 mm, D=2.1 mm, Particle Size=1.7 μm, 100 A).
The data are presented as a percentage of the main lipid peak measured at different time points relative to the lipid peak measured at time zero.

[3] = Oxidative stability of ICLs and liposomes under accelerated oxidation (H2O2/Fe(III)Cl, UHPLC-CAD), Example 18; conditions: ICL lipid suspensions, 1% H2O2/100 μM Fe(III)Cl, 37° C.
Method: Individual lipid stocks (10 mM) were prepared in ethanol and stored at −20° C. […] Liposomal formulations based on AKG-UO-1 and O-11769 ionizable cationic lipids (Table 12) were prepared by combining lipid mixtures of desired composition in 1 mL ethanol with 3 mL 6.25 mM sodium acetate, pH 5.0 at 6 mL/min on a NanoAssemblr (Precision Nanosystems). 3.6 mL of the mixture was retained, while the initial 0.35 mL of the mixture and final 0.05 mL were discarded. Ethanol was removed by buffer exchange into PBS, pH 7.4 by concentrating each liposome preparation using an Aminon-Ultra 4 centrifugal concentrator at 500 g for 10 min at 4° C. and diluting back to the original volume with PBS. This cycle was repeated multiple times until the ethanol concentration was <1%. Finally, liposomes were sterile filtered through 0.2 μm PES (Nalgene) syringe filters and size measured by a ZetaSizer (Malvern).
Aliquots of the liposomal formulations were stored at −80° C. and thawed before the experiment. A combined stock in water of 10% H2O2 (Sigma-Aldrich, cat #H1009) and 1 mM of Fe(III)Cl (Sigma-Aldrich, cat #372870) was freshly prepared prior to the treatment. To make 1% final concentration of H2O2 and 100 μM Fe(III)Cl, 10 μl of 10% H2O2/1 mM Fe(III)Cl stock was added to 90 μl of both liposomal formulations and individual lipids The liposomes and individual lipids were incubated with H2O2/Fe(III)Cl at 37° C. and then 5 μl from each sample was taken at different time points (0, 3, 24, 48 and 72 hours) and dissolved in 90 μl of MeOH for HPLC analysis. Degradation of the main lipid peak was analyzed using Thermo Scientific Vanquish Flex UHPLC occupied with Charged Aerosol Detector (CAD) and Thermo Scientific Accucore™ C18+ UHPLC column (L=50 mm, D=2.1 mm, Particle Size=1.5 μm).
The data are presented as a percentage of the main lipid pea measure at different time points relative to the lipid peak measured at time zero.

| Structure (SMILES) | Solubility, mM phosphatidylserine [1] | % of main lipid peak to To, 24 h. [2] | % of main lipid peak to To, 48 h. [2] | % of main lipid peak to To, 72 h. [2] | also measured |
| --- | --- | --- | --- | --- | --- |
| CCCCCCCCCCCCCCCC(=O)OC[C@H](COP(=O)(O)OC[C@H](N)C(=O)O)OC(=O)CCCCCCCCCCCCCCC.N [DPPS ammonium] | 0.865 ± 0.060 mM | – | – | – | ethanol solubility ([1]; vs DSPS ammonium and the sodium salts): several-fold higher ethanol solubility |
| CCCCCCCCCCCCCCCC(=O)OC[C@H](COP(=O)(O)OC[C@H](N)C(=O)[O-])OC(=O)CCCCCCCCCCCCCCC.[Na+] [DPPS sodium] | 0.201 ± 0.004 mM | – | – | – | – |
| CCCCCCCCCCCCCCCCCC(=O)OC[C@H](COP(=O)(O)OC[C@H](N)C(=O)O)OC(=O)CCCCCCCCCCCCCCCCC.N [DSPS ammonium] | 0.034 ± 0.004 mM | – | – | – | – |
| CCCCCCCCCCCCCCCCCC(=O)OC[C@H](COP(=O)(O)OC[C@H](N)C(=O)[O-])OC(=O)CCCCCCCCCCCCCCCCC.[Na+] [DSPS sodium] | 0.111 ± 0.009 mM | – | – | – | – |
| CCCCC/C=C\C/C=C\CCCCCCCCC1(CCCCCCCC/C=C\C/C=C\CCCCC)OCC(CCCN(C)C)O1 (stereo not drawn) [KC3, reference compound] | – | 11.2 ± 1.0% | 10.5 ± 0.5% | 0 ± 0% | degradation under forced oxidation with H2O2 ([2]; relative to other cationic lipids, FIG. 18): fastest degradation |
| CCCCCCCC/C=C\CCCCCCCC1(CCCCCCC/C=C\CCCCCCCC)OC[C@H](CCCN(C)C)O1 [KC3-17 (C8:1), 3-((S)-2,2-di((Z)-heptadec-8-en-1-yl)-1,3-dioxolan-4-yl)-N,N-dimethylpropan-1-amine] | – | 66.1 ± 0.6% | 58.4 ± 1.5% | 45.9 ± 4.7% | – |
| CCCCCCCCCCCCCCCCCC1(CCCCCCCCCCCCCCCCC)OC[C@H](CCCN(C)C)O1 [KC3-17, (S)-3-(2,2-diheptadecyl-1,3-dioxolan-4-yl)-N,N-dimethylpropan-1-amine] | – | 92.9 ± 0.3% | 91.8 ± 1.2% | 90.2 ± 1.2% | – |
| CCCCCCCC/C=C\CCCCCCCCC1(CCCCCCCC/C=C\CCCCCCCC)OC[C@H](CCCN(C)C)O1 [KC3-OA, 3-((S)-2,2-di((Z)-octadec-9-en-1-yl)-1,3-dioxolan-4-yl)-N,N-dimethylpropan-1-amine] | – | 88.9 ± 0.5% | 84.6 ± 0.9% | 79.0 ± 0.1% | – |
| CCCCCC/C=C\CCCCCCCCC1(CCCCCCCC/C=C\CCCCCC)OC[C@H](CCCN(C)C)O1 [KC3-PA, 3-((S)-2,2-di((Z)-hexadec-9-en-1-yl)-1,3-dioxolan-4-yl)-N,N-dimethylpropan-1-amine] | – | 62.7 ± 0.1% | 59.2 ± 0.8% | 60.2 ± 0.6% | – |
| CCCCC/C=C\CCCC/C=C\CCCCC(=O)OC[C@H](CCN(C)CCO)OC(=O)CCCC/C=C\CCCC/C=C\CCCCC [UO-6] | – | – | – | – | % of parent lipid peak at time 0, 24 h [3]: 58 ± 0.8%; % of parent lipid peak at time 0, 48 h [3]: 32 ± 1.3%; % of parent lipid peak at time 0, 72 h [3]: 22 ± 1.8% |
| CCCCC/C=C\CCCC/C=C\CCCCC(=O)OC[C@H](CCCN(C)C)OC(=O)CCCC/C=C\CCCC/C=C\CCCCC [UO-7] | – | – | – | – | % of parent lipid peak at time 0, 24 h [3]: 80 ± 1.7%; % of parent lipid peak at time 0, 48 h [3]: 71 ± 0.8%; % of parent lipid peak at time 0, 72 h [3]: 62 ± 1.0% |
